Reference: patent US20090246169A1, “INDOLOPYRIDINES AS EG5 KINESIN MODULATORS” (priority 2006, published 2009)

System: RKO p21 colon adenocarcinoma cells, uninduced (proliferating)
Assay: Alamar Blue cell viability assay, RKO p21 uninduced (proliferating)
Type: cell-based
Conditions: Homo sapiens; anti-proliferative/cytotoxic activity, 72 hours, without Ponasterone A; read-out: −log EC50 [mol/l] RKO p21 uninduced (proliferating) (converted)
Protocol: The anti-proliferative/cytotoxic activity of the compounds described herein can be tested on subclones of RKO human colon adenocarcinoma cells (Schmidt et al., Oncogene 19, 2423-2429; 2000) using the Alamar Blue cell viability assay (described in O'Brien et al. Eur J Biochem 267, 5421-5426, 2000). The compounds are dissolved as 10 mM solutions in DMSO and subsequently diluted in semi-logarithmic steps. DMSO dilutions are further diluted 1:100 into Dulbecco's modified Eagle's medium (DMEM) containing 10% fetal calf serum to a final concentration twice as much as the final concentration in the test. RKO subclones are seeded into 96 well flat bottom plates at a density of 4000 cells per well in a volume of 50 μl per well. 24 hours after seeding the 50 μl each of the compound dilutions in DMEM medium are added into each well of the 96 well plate. Each compound dilution is tested as triplicates. Wells containing untreated control cells are filled with 50 μl DMEM medium containing 1% DMSO. The cells are then incubated with the substances for 72 hours at 37° C. in a humidified atmosphere containing 5% carbon dioxide. To determine the viability of the cells, 10 μl of an Alamar Blue solution (Biosource) are added and the fluorescence is measured at an extinction of 544 nm and an emission of 590 nm. For the calculation of the cell viability the emission value from untreated cells is set as 100% viability and the emission rates of treated cells are set in relation to the values of untreated cells. Viabilities are expressed as % values. The Graphpad Prism program is used for the calculation of EC50 values for anti-proliferative/cytotoxic activity out of the obtained dose-response curves.
To determine the cell cycle specific mode of action, subclones of RKO colon adenocarcinoma cells (RKOp21 or RKOp27 as described by Schmidt et al. in Oncogene 19, 2423-2429; 2000) are seeded into 96 well flat bottom plates at a density of 16000 cells per well in a volume of 50 μl per well in DMEM growth medium with 10% FCS containing 10 μM Ponasterone A. 24 hours after seeding the 50 μl each of the compound dilutions in DMEM medium are added into each well of the 96-well plate. Each compound dilution is tested as triplicates. Wells containing untreated control cells are filled with 50 μl DMEM medium containing 1% DMSO. The cells are then incubated with the substances for 72 hours at 37° C. in a humidified atmosphere containing 5% carbon dioxide. To determine the viability of the cells, 10 μl of an Alamar Blue solution (Biosource) are added and the fluorescence is measured at an extinction of 544 nm and an emission of 590 nm. For the calculation of the cell viability the emission value from untreated cells is set as 100% viability and the emission rates of treated cells are set in relation to the values of untreated cells. Viabilities are expressed as % values. The Graphpad Prism program (GraphPad Software, Inc) is used for the calculation of EC50 values out of the obtained dose-response curves. Viability is compared of proliferating cells grown in the absence of the inducer Ponasterone A, versus viability of cells arrested by the expression of ectopic p27Kip1 induced by Ponasterone A.
Representative values for anti-proliferation/cytotoxicity [measured as −log EC50 (mol/l)] determined in the aforementioned assays follow from the following tables B1 and B2, in which the numbers of the compounds correspond to the numbers of the examples.

Structure (SMILES)	EC50 [nM]
COc1ccc2[nH]c3c(c2c1)C[C@@]1(C)C(=O)N(CCCN(C)C(C)C)C(=O)N1[C@@H]3c1ccccc1 (racemic) [Example 59, (3aSR, 10RS)-2-[3-(Isopropyl-methyl-amino)-propyl]-6-methoxy-3a-methyl-10-phenyl-3a,4,9,10-tetra-hydro-2,9,10a-triaza-cyclo-penta[b]fluorene-1,3-dione]	≤ 1000
COc1ccc2[nH]c3c(c2c1)C[C@@]1(C)C(=O)N(CCCN2CCC2)C(=O)N1[C@@H]3c1ccccc1 (racemic) [Example 60, (3aSR, 10RS)-2-(3-Azetidin-1-yl-propyl)-6-methoxy-3a-methyl-10-phenyl-3a,4,9,10-tetrahydro-2,9,10a-triaza-cyclopenta[b]fluorene-1,3-dione]	≤ 1000
COc1ccc2[nH]c3c(c2c1)C[C@@]1(C)C(=O)N(CCCN2CCOCC2)C(=O)N1[C@@H]3c1ccccc1 (racemic) [Example 61, (3aSR, 10RS)-6-Methoxy-3a-methyl-2-(3-morpholin-4-yl-propyl)-10-phenyl-3a,4,9,10-tetrahydro-2,9,10a-triaza-cyclopenta[b]fluorene-1,3-dione]	≤ 1000
COc1ccc2[nH]c3c(c2c1)C[C@@]1(C)C(=O)N(CCCN2CCCC2)C(=O)N1[C@@H]3c1ccccc1 (racemic) [Example 62, (3aSR, 10RS)-6-Methoxy-3a-methyl-10-phenyl-2-(3-pyrrolidin-1-yl-propyl)-3a,4,9,10-tetrahydro-2,9,10a-triaza-cyclopenta[b]fluorene-1,3-dione]	≤ 1000
COc1ccc2[nH]c3c(c2c1)C[C@@]1(C)C(=O)N(CCCn2ccnc2)C(=O)N1[C@@H]3c1ccccc1 (racemic) [Example 63, (3aSR, 10RS)-2-(3-Imidazol-1-yl-propyl)-6-methoxy-3a-methyl-10-phenyl-3a,4,9,10-tetrahydro-2,9,10a-triaza-cyclopenta[b]fluorene-1,3-dione]	≤ 1000
COc1ccc2[nH]c3c(c2c1)C[C@@]1(C)C(=O)N(CCCN2CC=CC2)C(=O)N1[C@@H]3c1ccccc1 (racemic) [Example 64, (3aSR, 10RS)-2-[3-(2,5-Dihydro-pyrrol-1-yl)-propyl]-6-methoxy-3a-methyl-10-phenyl-3a,4,9,10-tetrahydro-2,9,10a-triaza-cyclopenta [b]fluorene-1,3-dione]	≤ 1000
COc1ccc2[nH]c3c(c2c1)C[C@@]1(C)C(=O)N(CCCN2CCCCC2)C(=O)N1[C@@H]3c1ccccc1 (racemic) [Example 65, (3aSR, 10RS)-6-Methoxy-3a-methyl-10-phenyl-2-(3-piperidin-1-yl-propyl)-3a,4,9,10-tetrahydro-2,9,10a-triaza-cyclopenta[b]fluorene-1,3-dione]	≤ 1000
COc1ccc2[nH]c3c(c2c1)C[C@@]1(C)C(=O)N(CCCN2CCC(C)CC2)C(=O)N1[C@@H]3c1ccccc1 (racemic) [Example 66, (3aSR, 10RS)-6-Methoxy-3a-methyl-2-[3-(4-methyl-piperidin-1-yl)-propyl]-10-phenyl-3a,4,9,10-tetrahydro-2,9,10a-triaza-cyclopenta[b] fluorene-1,3-dione]	≤ 1000
COc1ccc2[nH]c3c(c2c1)C[C@@]1(C)C(=O)N(CCCN2CC=CCC2)C(=O)N1[C@@H]3c1ccccc1 (racemic) [Example 67, (3aSR, 10RS)-2-[3-(3,6-Dihydro-2H-pyridin-1-yl)-propyl]-6-methoxy-3a-methyl-10-phenyl-3a,4,9,10-tetra-hydro-2,9,10a-triaza-cyclo-penta[b]fluorene-1,3-dione]	≤ 1000
COc1ccc2[nH]c3c(c2c1)C[C@@]1(C)C(=O)N(CCCN2CCN(C)CC2)C(=O)N1[C@@H]3c1ccccc1 (racemic) [Example 68, (3aSR, 10RS)-6-Methoxy-3a-methyl-2-[3-(4-methyl-piperazin-1-yl)-propyl]-10-phenyl-3a,4,9,10-tetrahydro-2,9,10a-triaza-cyclopenta [b]fluorene-1,3-dione]	≤ 1000
COc1ccc2[nH]c3c(c2c1)C[C@@]1(C)C(=O)N(CCCN2CCN(C(C)=O)CC2)C(=O)N1[C@@H]3c1ccccc1 (racemic) [Example 69, (3aSR, 10RS)-2-[3-(4-Acetyl-piperazin-1-yl)-propyl]-6-methoxy-3a-methyl-10-phenyl-3a,4,9,10-tetra-hydro-2,9,10a-triaza-cyclo-penta[b]fluorene-1,3-dione]	≤ 1000
COCCNCCCN1C(=O)N2[C@H](c3ccccc3)c3[nH]c4ccc(OC)cc4c3C[C@@]2(C)C1=O (racemic) [Example 70, (3aSR, 10RS)-6-Methoxy-2-[3-(2-methoxy-ethylamino)-propyl]-3a-methyl-10-phenyl-3a,4,9,10-tetrahydro-2,9,10a-triaza-cyclopenta[b]fluorene-1,3-dione]	≤ 1000
COc1ccc2[nH]c3c(c2c1)C[C@@]1(C)C(=O)N(CCCNC2CC2)C(=O)N1[C@@H]3c1ccccc1 (racemic) [Example 71, (3aSR, 10RS)-2-(3-Cyclo-propylamino-propyl)-6-methoxy-3a-methyl-10-phenyl-3a,4,9,10-tetrahydro-2,9,10a-triaza-cyclopenta[b] fluorene-1,3-dione]	≤ 1000
COc1ccc2[nH]c3c(c2c1)C[C@@]1(C)C(=O)N(CCCNC2CCC2)C(=O)N1[C@@H]3c1ccccc1 (racemic) [Example 72, (3aSR, 10RS)-2-(3-Cyclo-butylamino-propyl)-6-methoxy-3a-methyl-10-phenyl-3a,4,9,10-tetrahydro-2,9,10a-triaza-cyclopenta[b] fluorene-1,3-dione]	≤ 1000
CNCCCN1C(=O)N2[C@H](c3ccccc3)c3[nH]c4ccc(OC)cc4c3C[C@@]2(C)C1=O (racemic) [Example 73, (3aSR, 10RS)-6-Methoxy-3a-methyl-2-(3-methylamino-propyl)-10-phenyl-3a,4,9,10-tetrahydro-2,9,10a-triaza-cyclopenta[b]fluorene-1,3-dione]	≤ 1000
COc1ccc2[nH]c3c(c2c1)C[C@@]1(C)C(=O)N(CCCNCC2CC2)C(=O)N1[C@@H]3c1ccccc1 (racemic) [Example 74, (3aSR, 10RS)-2-[3-(Cyclo-propylmethyl-amino)-propyl]-6-methoxy-3a-methyl-10-phenyl-3a,4,9,10-tetrahydro-2,9,10a-triaza-cyclopenta[b] fluorene-1,3-dione]	≤ 1000
COc1ccc2[nH]c3c(c2c1)C[C@@]1(C)C(=O)N(CCCNCCO)C(=O)N1[C@@H]3c1ccccc1 (racemic) [Example 75, (3aSR, 10RS)-2-[3-(2-Hydroxy-ethylamino)-propyl]-6-methoxy-3a-methyl-10-phenyl-3a,4,9,10-tetrahydro-2,9,10a-triaza-cyclopenta[b] fluorene-1,3-dione]	≤ 1000
COc1ccc2[nH]c3c(c2c1)C[C@@]1(C)C(=O)N(CCCNC(C)(C)C)C(=O)N1[C@@H]3c1ccccc1 (racemic) [Example 76, (3aSR, 10RS)-2-(3-tert-Butylamino-propyl)-6-methoxy-3a-methyl-10-phenyl-3a,4,9,10-tetrahydro-2,9,10a-triaza-cyclopenta[b] fluorene-1,3-dione]	≤ 1000
C=CCNCCCN1C(=O)N2[C@H](c3ccccc3)c3[nH]c4ccc(OC)cc4c3C[C@@]2(C)C1=O (racemic) [Example 77, (3aSR, 10RS)-2-(3-Allyl-amino-propyl)-6-methoxy-3a-methyl-10-phenyl-3a,4,9,10-tetrahydro-2,9,10a-triaza-cyclopenta[b]fluorene-1,3-dione]	≤ 1000
COc1ccc2[nH]c3c(c2c1)C[C@@]1(C)C(=O)N(CCCN2CCCCCC2)C(=O)N1[C@@H]3c1ccccc1 (racemic) [Example 78, (3aSR, 10RS)-2-(3-Azepan-1-yl-propyl)-6-methoxy-3a-methyl-10-phenyl-3a,4,9,10-tetrahydro-2,9,10a-triaza-cyclopenta[b]fluorene-1,3-dione]	≤ 1000
